Assay results reported in ChEMBL document CHEMBL1126484, “Backbone modified formyl-methionyl tripeptide chemoattractants” (1993).
Where a SMILES comes first, the peptide text is derived from it.

Tests used:
Assay type in all cases: functional
Oryctolagus cuniculus [1] = species on record: Oryctolagus cuniculus; test: Relative potency with respect to HCO-L-Met-L-Leu-L-Phe-OMe (1) was determined
Oryctolagus cuniculus [2] = species on record: Oryctolagus cuniculus; test: Effective dose to induce the secretion of beta-glucosaminidase from cytochalasin beta-treated rabbit peritoneal polymorphonuclear leukocytes (neutrophils); settings: read-out: ED50 (the source's name)
Oryctolagus cuniculus [3] = species on record: Oryctolagus cuniculus; test: Maximum percentage induction of the secretion of beta-glucosaminidase from cytochalasin beta-treated rabbit peritoneal polymorphonuclear leukocytes (neutrophils)

SMILES | Relative potency (Oryctolagus cuniculus [1]) | EC50 (Oryctolagus cuniculus [2]) | Max (Oryctolagus cuniculus [3])
COC(=O)[C@H](Cc1ccccc1)NC(=O)[C@@](C)(NC(=O)[C@H](CCSC)NC=O)C(C)C | 2.5 | 0.027 nM | 32%
CC[C@](C)(NC(=O)[C@H](CCSC)NC=O)C(=O)N[C@@H](Cc1ccccc1)C(=O)OC | 0.4 | 0.17 nM | 32%
COC(=O)[C@H](Cc1ccccc1)NC(=O)[C@H](CC(C)C)NC(=O)[C@H](CCSC)NC=O |  | 0.068 nM | 42%
COC(=O)[C@H](Cc1ccccc1)NC(=O)[C@@H](CC(C)C)NC(=O)[C@H](CCSC)NC=O | 0.0019 | 36 nM | 38%
COC(=O)[C@H](Cc1ccccc1)NC(=O)[C@@](C)(CC(C)C)NC(=O)[C@H](CCSC)NC=O | 1.3 | 0.052 nM | 42%
COC(=O)[C@H](Cc1ccccc1)NC(=O)[C@](C)(NC(=O)[C@H](CCSC)NC=O)C(C)C | 0.62 | 0.11 nM | 38%
CC[C@@](C)(NC(=O)[C@H](CCSC)NC=O)C(=O)N[C@@H](Cc1ccccc1)C(=O)OC | 0.14 | 0.48 nM | 42%
CSCC[C@H](NC=O)C(=O)N[C@@H](CC(C)C)C(=O)N[C@@H](Cc1ccccc1)C(=O)O | 0.52 | 0.13 nM | 37%
COC(=O)[C@H](Cc1ccccc1)NC(=O)[C@](C)(CC(C)C)NC(=O)[C@H](CCSC)NC=O | 2.5 | 0.027 nM | 42%
COC(=O)[C@H](Cc1ccccc1)NC(=O)C(C)(C)NC(=O)[C@H](CCSC)NC=O (HELM PEPTIDE1{[O=C[*:2]].M.[Aib].F.[CO[*:1]]}$$$$V2.0) | 0.049 | 1.4 nM | 39%
